{"source": "paper PMC10065799", "about": "“High-throughput profiling of sequence recognition by tyrosine kinases and SH2 domains using bacterial peptide display” (eLife, 2023)", "key": {"c-Src kinase domain": {"biological_target": "c-Src kinase domain (Homo sapiens, UniProt P12931)", "assay": "pTyr-Var library bacterial peptide display kinase screen (enrichment scores);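 for AncSZ hit?: Hit requires p below 0.05 and at least twofold variant vs reference change plus filters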;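 for Fyn hit?: Hit requires p below 0.05 and at least twofold variant vs reference change plus filters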;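 for c-Abl hit?: Hit requires p below 0.05 and at least twofold variant vs reference change plus filters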;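 for c-Src hit?: Hit requires p below 0.05 and at least twofold variant vs reference change plus filters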", "format": "biochemical"}, "Fyn kinase domain": {"tested_on": "Fyn kinase domain", "assay": "pTyr-Var library bacterial peptide display kinase screen (enrichment scores)", "format": "biochemical, human"}, "Hck kinase domain": {"tested_on": "Hck kinase domain", "assay": "pTyr-Var library bacterial peptide display kinase screen (enrichment scores)", "format": "biochemical, human"}, "c-Abl kinase domain": {"biological_target": "T1, c-Abl kinase domain (Mus musculus, UniProt P00520)", "T1 sequence (P00520 242-493 limits assumed)": "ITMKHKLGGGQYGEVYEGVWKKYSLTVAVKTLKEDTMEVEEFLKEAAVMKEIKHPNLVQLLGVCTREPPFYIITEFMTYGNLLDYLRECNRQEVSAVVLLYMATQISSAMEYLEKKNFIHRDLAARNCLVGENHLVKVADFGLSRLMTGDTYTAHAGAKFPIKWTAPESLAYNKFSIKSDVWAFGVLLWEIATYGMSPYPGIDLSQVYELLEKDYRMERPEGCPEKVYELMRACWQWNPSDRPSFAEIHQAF", "assay": "pTyr-Var library bacterial peptide display kinase screen (enrichment scores)", "format": "biochemical"}, "Jak2": {"tested_on": "Jak2", "assay": "pTyr-Var library bacterial peptide display kinase screen (enrichment scores)", "format": "biochemical, human"}, "AncSZ kinase domain": {"tested_on": "AncSZ kinase domain", "assay": "pTyr-Var library bacterial peptide display kinase screen (enrichment scores)", "format": "biochemical"}, "Fer kinase domain": {"tested_on": "Fer kinase domain", "assay": "pTyr-Var library bacterial peptide display kinase screen (enrichment scores)", "format": "biochemical, mouse"}, "Fes": {"tested_on": "Fes", "assay": "pTyr-Var library bacterial peptide display kinase screen (enrichment scores)", "format": "biochemical"}, "FGFR1 kinase domain": {"tested_on": "FGFR1 kinase domain", "assay": "pTyr-Var library bacterial peptide display kinase screen (enrichment scores)", "format": "biochemical, human"}, "FGFR3 kinase domain": {"tested_on": "FGFR3 kinase domain", "assay": "pTyr-Var library bacterial peptide display kinase screen (enrichment scores)", "format": "biochemical, human"}, "EPHB1 kinase domain": {"tested_on": "EPHB1 kinase domain", "assay": "pTyr-Var library bacterial peptide display kinase screen (enrichment scores)", "format": "biochemical, human"}, "EPHB2 kinase domain": {"tested_on": "EPHB2 kinase domain", "assay": "pTyr-Var library bacterial peptide display kinase screen (enrichment scores)", "format": "biochemical, human"}, "MERTK kinase domain": {"tested_on": "MERTK kinase domain", "assay": "pTyr-Var library bacterial peptide display kinase screen (enrichment scores)", "format": "biochemical, human"}, "[1]": {"tested_on": "4G10 Platinum pan-phosphotyrosine antibody", "assay": "Phosphorylated pTyr-Var library selection with biotinylated pan-phosphotyrosine antibody", "format": "binding, mouse", "details": "enrichment score, sheet SH2-vs-peptide"}, "c-Src SH2 domain": {"biological_target": "c-Src SH2 domain (Homo sapiens, UniProt P12931)", "assay": "pTyr-Var library SH2 domain screen with SH2-dynabeads (enrichment scores)", "details": "sheet c-Src"}, "SHP2 C-SH2 domain": {"tested_on": "SHP2 C-SH2 domain", "assay": "pTyr-Var library SH2 domain screen with SH2-dynabeads (enrichment scores)"}, "Grb2 SH2 domain": {"tested_on": "Grb2 SH2 domain", "assay": "pTyr-Var library SH2 domain screen with SH2-dynabeads (enrichment scores)"}, "[2]": {"details": "mean of log2 of enrichment over R1-R4"}, "[3]": {"details": "pTyr-Var library, enrichment score, replicate 1"}, "[4]": {"details": "pTyr-Var library, enrichment score, replicate 3"}, "[5]": {"details": "pTyr-Var library, enrichment score, replicate 4"}, "[6]": {"details": "variant versus reference peptide"}, "[7]": {"details": "variant versus reference peptide, significant hit TRUE/FALSE"}, "[8]": {"details": "mean of log2(variant) minus mean of log2(reference)"}, "[9]": {"details": "mean of log2 enrichment of variant peptide, n = 5"}, "[10]": {"details": "pTyr-Var library, variant peptide enrichment, mean of n = 5"}, "[11]": {"details": "mean of log2 enrichment of variant peptide, n = 4"}, "[12]": {"details": "pTyr-Var library, variant peptide enrichment, mean of n = 4"}}, "data": [{"sequence": "ATVQNYLPKCI [A2M_Y817_L815Q]", "values": [{"measurement": "c-Src mean of log2(enrichment)", "setting": "c-Src kinase domain; [2]", "value": -1.474}, {"measurement": "c-Src enrich. R1", "setting": "c-Src kinase domain; [3]", "value": 0.3685}, {"measurement": "c-Src enrich. R3", "setting": "c-Src kinase domain; [4]", "value": 0.3322}, {"measurement": "c-Src enrich. R4", "setting": "c-Src kinase domain; [5]", "value": 0.416}, {"measurement": "c-Src difference (mean log2 variant - mean log2 reference)", "setting": "c-Src kinase domain; [6]", "value": -0.08063}, {"measurement": "c-Src hit?", "setting": "c-Src kinase domain; [7]", "value": "FALSE"}, {"measurement": "Fyn mean of log2(enrichment)", "setting": "Fyn kinase domain; [2]", "value": -1.466}, {"measurement": "Fyn enrich. R1", "setting": "Fyn kinase domain; [3]", "value": 0.4872}, {"measurement": "Fyn enrich. R3", "setting": "Fyn kinase domain; [4]", "value": 0.3635}, {"measurement": "Fyn enrich. R4", "setting": "Fyn kinase domain; [5]", "value": 0.2869}, {"measurement": "Fyn difference (mean log2 variant - mean log2 reference)", "setting": "Fyn kinase domain; [6]", "value": -0.247}, {"measurement": "Fyn hit?", "setting": "Fyn kinase domain; [7]", "value": "FALSE"}, {"measurement": "Hck mean of log2(enrichment)", "setting": "Hck kinase domain; mean of log2(variant) / mean of log2(reference), R1-R4", "value": 0.3462}, {"measurement": "Hck enrich. R1", "setting": "Hck kinase domain; [3]", "value": 0.3734}, {"measurement": "Hck enrich. R3", "setting": "Hck kinase domain; [4]", "value": 0.3895}, {"measurement": "Hck enrich. R4", "setting": "Hck kinase domain; [5]", "value": 0.2207}, {"measurement": "Hck difference (variant - reference)", "setting": "Hck kinase domain; [6]", "value": -0.2528}, {"measurement": "Hck hit?", "setting": "Hck kinase domain; [7]", "value": "FALSE"}, {"measurement": "c-Abl mean of log2(enrichment)", "setting": "c-Abl kinase domain; [2]", "value": -0.576}, {"measurement": "c-Abl enrich. R1", "setting": "c-Abl kinase domain; [3]", "value": 0.4837}, {"measurement": "c-Abl enrich. R3", "setting": "c-Abl kinase domain; [4]", "value": 0.713}, {"measurement": "c-Abl enrich. R4", "setting": "c-Abl kinase domain; [5]", "value": 0.6552}, {"measurement": "c-Abl hit?", "setting": "c-Abl kinase domain; [7]", "value": "FALSE"}, {"measurement": "Jak2 mean of log2(enrichment)", "setting": "Jak2; mean of log2 of enrichment over R1-R3", "value": -0.5861}, {"measurement": "Jak2 enrich. R1", "setting": "Jak2; [3]", "value": 0.5921}, {"measurement": "Jak2 enrich. R3", "setting": "Jak2; [4]", "value": 0.5314}, {"measurement": "Jak2 difference (mean log2 variant - mean log2 reference)", "setting": "Jak2; [6]", "value": -0.3549}, {"measurement": "Jak2 hit?", "setting": "Jak2; [7]", "value": "FALSE"}, {"measurement": "AncSZ mean of log2(enrichment)", "setting": "AncSZ kinase domain; mean of log2 of enrichment over R1-R5", "value": -0.7038}, {"measurement": "AncSZ enrich. R1", "setting": "AncSZ kinase domain; [3]", "value": 0.6587}, {"measurement": "AncSZ enrich. R3", "setting": "AncSZ kinase domain; [4]", "value": 0.7943}, {"measurement": "AncSZ enrich. R4", "setting": "AncSZ kinase domain; [5]", "value": 0.5045}, {"measurement": "AncSZ enrich. R5", "setting": "AncSZ kinase domain; pTyr-Var library, enrichment score, replicate 5", "value": 0.4741}, {"measurement": "AncSZ difference (mean log2 variant - mean log2 reference)", "setting": "AncSZ kinase domain; [6]", "value": -0.2377}, {"measurement": "AncSZ hit?", "setting": "AncSZ kinase domain; [7]", "value": "FALSE"}, {"measurement": "Fer mean of log2(enrichment)", "setting": "Fer kinase domain; [2]", "value": -1.311}, {"measurement": "Fer enrich. R1", "setting": "Fer kinase domain; [3]", "value": 0.4446}, {"measurement": "Fer enrich. R3", "setting": "Fer kinase domain; [4]", "value": 0.4557}, {"measurement": "Fer enrich. R4", "setting": "Fer kinase domain; [5]", "value": 0.3278}, {"measurement": "Fer difference (mean log2 variant - mean log2 reference)", "setting": "Fer kinase domain; [6]", "value": -0.03599}, {"measurement": "Fer hit?", "setting": "Fer kinase domain; [7]", "value": "FALSE"}, {"measurement": "Fes mean of log2(enrichment)", "setting": "Fes; mean of log2 of enrichment over R1-R6", "value": -0.2803}, {"measurement": "Fes difference (mean log2 variant - mean log2 reference)", "setting": "Fes; [6]", "value": -0.2401}, {"measurement": "difference", "setting": "FGFR1 kinase domain; [8]", "value": -0.151}, {"measurement": "mean of log2(variant)", "setting": "FGFR1 kinase domain; [9]", "value": -1.149}, {"measurement": "var. mean", "setting": "FGFR1 kinase domain; [10]", "value": 0.4624}, {"measurement": "difference", "setting": "FGFR3 kinase domain; [8]", "value": -0.3951}, {"measurement": "mean of log2(variant)", "setting": "FGFR3 kinase domain; [9]", "value": -1.056}, {"measurement": "var. mean", "setting": "FGFR3 kinase domain; [10]", "value": 0.4887}, {"measurement": "difference", "setting": "EPHB1 kinase domain; [8]", "value": -0.7634}, {"measurement": "mean of log2(variant)", "setting": "EPHB1 kinase domain; [11]", "value": -1.369}, {"measurement": "var. mean", "setting": "EPHB1 kinase domain; [12]", "value": 0.3903}, {"measurement": "difference", "setting": "EPHB2 kinase domain; [8]", "value": -0.2469}, {"measurement": "mean of log2(variant)", "setting": "EPHB2 kinase domain; [11]", "value": -1.144}, {"measurement": "var. mean", "setting": "EPHB2 kinase domain; [12]", "value": 0.4818}, {"measurement": "difference", "setting": "MERTK kinase domain; [8]", "value": -0.01109}, {"measurement": "mean of log2(variant)", "setting": "MERTK kinase domain; [11]", "value": -1.438}, {"measurement": "var. mean", "setting": "MERTK kinase domain; [12]", "value": 0.3721}, {"measurement": "4G10 (mean)", "setting": "[1]", "value": 0.5753}, {"measurement": "difference", "setting": "c-Src SH2 domain; [8]", "value": -0.03544}, {"measurement": "mean of log2(variant)", "setting": "c-Src SH2 domain; mean of log2 enrichment of variant peptide, R1-R3", "value": -1.014}, {"measurement": "var. mean", "setting": "c-Src SH2 domain; variant peptide, mean of R1-R3", "value": 0.4965}, {"measurement": "difference", "setting": "SHP2 C-SH2 domain; SHP2-C SH2, mean of log2(variant) minus mean of log2(reference)", "value": -0.37}, {"measurement": "mean of log2(variant)", "setting": "SHP2 C-SH2 domain; SHP2-C SH2, mean of log2 enrichment of variant, R1-R3", "value": -0.8263}, {"measurement": "hit?", "setting": "SHP2 C-SH2 domain; SHP2-C SH2, variant versus reference significant hit call", "value": "FALSE"}, {"measurement": "var. mean", "setting": "SHP2 C-SH2 domain; variant peptide enrichment score, SHP2-C SH2, mean of R1-R3", "value": 0.5806}, {"measurement": "difference", "setting": "Grb2 SH2 domain; Grb2 SH2, mean of log2(variant) minus mean of log2(reference)", "value": -0.167}, {"measurement": "mean of log2(variant)", "setting": "Grb2 SH2 domain; Grb2 SH2, mean of log2 enrichment of variant, R1-R3", "value": -0.3239}, {"measurement": "hit?", "setting": "Grb2 SH2 domain; Grb2 SH2, variant versus reference significant hit call", "value": "FALSE"}, {"measurement": "var. mean", "setting": "Grb2 SH2 domain; variant peptide enrichment score, Grb2 SH2, mean of R1-R3", "value": 0.8266}]}]}
